# Columns and labels:
# [1] = Antioxidant activity by measuring oxygen radical absorbance capacity-fluorescein values; format: functional
# BV-2 = assay: Antiinflammatory activity in LPS induced mouse BV-2 cells decrease in release of […] at 5 uM by […] (reference value: 100%); format: functional
# [2] = biological target: T1, Amyloid-beta precursor protein (Homo sapiens, UniProt P05067); assay: Inhibition of amyloid beta (1 to 42) (unknown origin) self aggregation at 50 uM relative to control
# [3] = biological target: T1, Amyloid-beta precursor protein; assay: Inhibition of amyloid beta (1 to 42) (unknown origin) self aggregation assessed as disaggregation relative to control; design: concentration or dose not given beside the values; conditions: concentration not given here
# [4] = biological target: T1, Amyloid-beta precursor protein; assay: Inhibition of amyloid beta (1 to 42) (unknown origin) self aggregation
# [5] = biological target: T1, Amyloid-beta precursor protein; assay: Inhibition of amyloid beta (1 to 42) (unknown origin) self aggregation assessed as disaggregation
# T1 sequence (P05067 whole entry): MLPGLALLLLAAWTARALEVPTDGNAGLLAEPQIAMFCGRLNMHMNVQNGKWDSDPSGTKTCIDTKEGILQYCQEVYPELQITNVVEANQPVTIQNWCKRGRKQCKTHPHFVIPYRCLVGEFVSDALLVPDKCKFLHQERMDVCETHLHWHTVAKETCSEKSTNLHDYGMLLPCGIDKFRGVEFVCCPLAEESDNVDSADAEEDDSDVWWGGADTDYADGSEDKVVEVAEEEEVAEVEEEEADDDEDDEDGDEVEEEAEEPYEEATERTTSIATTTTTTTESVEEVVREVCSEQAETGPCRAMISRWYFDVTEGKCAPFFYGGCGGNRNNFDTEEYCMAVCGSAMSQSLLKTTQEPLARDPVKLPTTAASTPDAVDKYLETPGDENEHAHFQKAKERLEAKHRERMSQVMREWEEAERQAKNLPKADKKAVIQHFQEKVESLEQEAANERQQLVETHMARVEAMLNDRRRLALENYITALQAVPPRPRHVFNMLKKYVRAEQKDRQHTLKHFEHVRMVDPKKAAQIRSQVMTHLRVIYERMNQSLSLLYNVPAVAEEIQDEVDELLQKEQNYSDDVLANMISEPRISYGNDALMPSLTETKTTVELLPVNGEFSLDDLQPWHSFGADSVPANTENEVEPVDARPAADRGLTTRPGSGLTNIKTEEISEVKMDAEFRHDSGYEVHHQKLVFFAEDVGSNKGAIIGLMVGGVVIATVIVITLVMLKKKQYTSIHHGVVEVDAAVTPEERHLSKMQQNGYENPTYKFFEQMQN
compound,measurement,setting,value
O=c1ccoc(/C=C/c2ccc(O)c(F)c2)c1O,Activity index,[1],2.78
same,Nitric oxide release (% of LPS control),BV-2,86.66%
same,inhibition,[2],36.1%
same,inhibition,[3],32.2%
CN1CCN(c2ccc(/C=C/c3occc(=O)c3O)cc2)CC1,Activity index,[1],2.33
same,Nitric oxide release (% of LPS control),BV-2,96.04%
same,inhibition,[2],30.6%
same,inhibition,[3],56.1%
COc1ccc(/C=C/c2occc(=O)c2O)cc1OC,Activity index,[1],1.73
same,Nitric oxide release (% of LPS control),BV-2,97.14%
same,inhibition,[2],10.4%
same,inhibition,[3],20.6%
O=c1ccoc(/C=C/c2ccc(N3CCSCC3)cc2)c1O,Activity index,[1],1.48
same,Nitric oxide release (% of LPS control),BV-2,98.13%
same,inhibition,[2],53.9%
same,IC50,[4],46.8 µM
same,inhibition,[3],62.8%
same,IC50,[5],28.5 µM
CC(C)(C)c1ccc(/C=C/c2occc(=O)c2O)cc1,Activity index,[1],0.07
same,Nitric oxide release (% of LPS control),BV-2,94.03%
same,inhibition,[2],37.7%
same,inhibition,[3],31.6%
COc1cc(/C=C/c2occc(=O)c2O)ccc1O,Activity index,[1],1.96
same,Nitric oxide release (% of LPS control),BV-2,90.67%
same,inhibition,[2],48.5%
same,inhibition,[3],42.9%
O=c1ccoc(/C=C/c2ccc(N3CCOCC3)cc2)c1O,Activity index,[1],2.25
same,Nitric oxide release (% of LPS control),BV-2,100.11%
same,inhibition,[2],50.4%
same,IC50,[4],49.4 µM
same,inhibition,[3],65.8%
same,IC50,[5],23.9 µM
O=c1ccoc(/C=C/c2cccc(F)c2)c1O,Activity index,[1],1.55
same,Nitric oxide release (% of LPS control),BV-2,71.55%
same,inhibition,[2],24.2%
same,inhibition,[3],18.5%
CN(C)c1ccc(/C=C/c2occc(=O)c2O)cc1,Activity index,[1],0.87
same,Nitric oxide release (% of LPS control),BV-2,92.3%
same,inhibition,[2],53.7%
same,IC50,[4],47.2 µM
same,inhibition,[3],47.6%
same,IC50,[5],42.4 µM
COC(=O)c1ccc(/C=C/c2occc(=O)c2O)cc1,Activity index,[1],0.25
same,Nitric oxide release (% of LPS control),BV-2,71.82%
same,inhibition,[2],33.7%
same,inhibition,[3],27.6%
O=c1ccoc(/C=C/c2ccc(Cl)cc2)c1O,Activity index,[1],1.02
same,Nitric oxide release (% of LPS control),BV-2,97.73%
same,inhibition,[2],30.4%
same,inhibition,[3],26.9%
O=c1ccoc(/C=C/c2ccc(O)cc2)c1O,Activity index,[1],2.79
same,Nitric oxide release (% of LPS control),BV-2,86.81%
same,inhibition,[2],36.7%
same,inhibition,[3],29.6%
COc1cccc(/C=C/c2occc(=O)c2O)c1,Activity index,[1],0.8
same,Nitric oxide release (% of LPS control),BV-2,72.79%
same,inhibition,[2],13.6%
same,inhibition,[3],42.8%
Oc1ccc(/C=C/c2cc(O)cc(O)c2)cc1 [RESVERATROL],Nitric oxide release (% of LPS control),BV-2,86.97%
same,inhibition,[2],73.2%
O=c1ccocc1O,Activity index,[1],1.75
same,Nitric oxide release (% of LPS control),BV-2,93.85%
O=c1ccoc(/C=C/c2ccc([N+](=O)[O-])cc2)c1O,Activity index,[1],0.79
same,Nitric oxide release (% of LPS control),BV-2,88.99%
same,inhibition,[2],56.8%
same,IC50,[4],38.2 µM
same,inhibition,[3],62.8%
same,IC50,[5],26.3 µM
O=c1ccoc(/C=C/c2cccc(Cl)c2)c1O,Activity index,[1],1.21
same,Nitric oxide release (% of LPS control),BV-2,88.17%
same,inhibition,[2],23.2%
same,inhibition,[3],28.2%
Cc1ccc(/C=C/c2occc(=O)c2O)cc1,Activity index,[1],0.32
same,Nitric oxide release (% of LPS control),BV-2,85.2%
same,inhibition,[2],28.6%
same,inhibition,[3],15.1%
O=c1ccoc(/C=C/c2ccc3ccccc3c2)c1O,Activity index,[1],1.38
same,Nitric oxide release (% of LPS control),BV-2,102.37%
same,inhibition,[2],50.6%
same,inhibition,[3],45.9%
O=c1ccoc(/C=C/c2ccc(-c3ccccc3)cc2)c1O,Activity index,[1],0.4
same,Nitric oxide release (% of LPS control),BV-2,87.38%
same,inhibition,[2],52%
same,inhibition,[3],46.7%
O=c1ccoc(/C=C/c2ccccc2Cl)c1O,Activity index,[1],1.13
same,Nitric oxide release (% of LPS control),BV-2,54.58%
same,inhibition,[2],27.7%
same,inhibition,[3],19.2%
N#Cc1ccc(/C=C/c2occc(=O)c2O)cc1,Activity index,[1],1.9
same,Nitric oxide release (% of LPS control),BV-2,88%
same,inhibition,[2],16.8%
same,inhibition,[3],17%
Cc1c(C)c2c(c(C)c1O)CCC(C)(C(=O)O)O2 (stereo not drawn),Activity index,[1],1
O=c1ccoc(/C=C/c2ccc(N3CCCCC3)cc2)c1O,Activity index,[1],2.21
same,Nitric oxide release (% of LPS control),BV-2,100.49%
same,inhibition,[2],59.6%
same,IC50,[4],33.4 µM
same,inhibition,[3],60.5%
same,IC50,[5],27.2 µM
COc1ccc(/C=C/c2occc(=O)c2O)cc1,Activity index,[1],0.75
same,Nitric oxide release (% of LPS control),BV-2,91.49%
same,inhibition,[2],34%
same,inhibition,[3],39%
COc1ccc(/C=C/c2occc(=O)c2O)cc1O,Activity index,[1],1.62
same,Nitric oxide release (% of LPS control),BV-2,90.08%
same,inhibition,[2],57.4%
same,IC50,[4],43.7 µM
same,inhibition,[3],48.9%
same,IC50,[5],43.2 µM
O=c1ccoc(/C=C/c2ccccc2F)c1O,Activity index,[1],1.49
same,Nitric oxide release (% of LPS control),BV-2,56.97%
same,inhibition,[2],19.9%
same,inhibition,[3],12.6%
O=c1ccoc(/C=C/c2ccc(F)cc2)c1O,Activity index,[1],1.13
same,Nitric oxide release (% of LPS control),BV-2,88.36%
same,inhibition,[2],8.6%
same,inhibition,[3],14.8%
COc1ccccc1/C=C/c1occc(=O)c1O,Activity index,[1],0.79
same,Nitric oxide release (% of LPS control),BV-2,77.3%
same,inhibition,[2],23.5%
same,inhibition,[3],30.9%
O=c1ccoc(/C=C/c2ccccc2)c1O,Activity index,[1],0.52
same,Nitric oxide release (% of LPS control),BV-2,78.21%
same,inhibition,[2],7.59%
same,inhibition,[3],8.21%
O=c1ccoc(/C=C/c2ccc(F)c(O)c2)c1O,Activity index,[1],3.19
same,Nitric oxide release (% of LPS control),BV-2,93.87%
same,inhibition,[2],23.8%
same,inhibition,[3],24%
O=c1ccoc(/C=C/c2ccc(C(F)(F)F)cc2)c1O,Activity index,[1],0.12
same,Nitric oxide release (% of LPS control),BV-2,88.82%
same,inhibition,[2],30.5%
same,inhibition,[3],25.9%
